Earlier results in patent US10828278B2, “Tesofensine and beta blocker combination formulations” (SANIONA A/S, priority 2015, dated 2020).

Columns and labels:
[1] = for half-life: in vivo
[2] = long-term treatment, corrected for placebo and diet effects, obese patients
[3] = in vivo

Row | SMILES | half-life [1] [h] | weight loss [2] | sagittal diameter [3] | waist circumference [3] | serum half-life ([1]; serum)
1 | COCCc1ccc(OCC(O)CNC(C)C)cc1 (stereo not drawn) [metoprolol, 1-(Isopropylamino)-3-[4-(2-methoxyethyl)-phenoxy]-propan-2-ol] | 3 to 4 |  |  |  | 
2 | COc1ccccc1OCCNCC(O)COc1cccc2[nH]c3ccccc3c12 (racemic) [carvedilol, (±)-[3-(9H-carbazol-4-yloxy)-2-hydroxypropyl][2-(2-methoxyphenoxy)ethyl]amine] | 7 to 10 |  |  |  | 
3 | CCOC[C@@H]1[C@@H](c2ccc(Cl)c(Cl)c2)C[C@@H]2CC[C@H]1N2C [Tesofensine, (1R,2R,3S,5S)-3-(3,4-dichlorophenyl)-2-(ethoxymethyl)-8-methyl-8-azabicyclo[3.2.1]octane] |  | about 10% | significantly decreases | significantly decreases | nine
